Test results reported in the supplement of paper PMC4862054.
One block for each compound: values may come before it.

Columns and labels:
BT-474 [1] = details: 72 h
Procedure: (§1)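 Drug sensitivity and resistance testing (DSRT) of breast cancer cell lines in 384-well plates, 5 concentrations in 10-fold dilutions over a compound-specific 10,000-fold range. After 72 h, cytotoxicity was read by CellTox Green fluorescence and viability by CellTiter-Glo luminescence (multiplexed), normalised to DMSO and benzethonium chloride controls. EC50 is the inflection point of the fitted dose-response curve (bottom asymptote free, so it can be relative for partial curves) and is censored at the highest tested concentration. Rows with DSS 0 (no meaningful response) were excluded.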

CAL-148 [2] = details: 72 h
Procedure: as §1

MDA-MB-468 = details: 72 h
Procedure: as §1

BT-549 [3] = details: 72 h
Procedure: as §1

CAL-51 [4] = details: 72 h
Procedure: as §1

HCC1937 [5] = details: 72 h
Procedure: as §1

MDA-MB-231 [6] = details: 72 h
Procedure: as §1

BT-474 [7] = details: 72 h; remark: listed apart in the source
Method in brief: (§2)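 Two sequential readouts followed a 72 h incubation of breast cancer cell lines with compound at 5 concentrations in 10-fold steps over a compound-specific 10,000-fold range: CellTox Green fluorescence (485/520 nm) for cell death, then CellTiter-Glo luminescence, after 10 min at room temperature, for viability. Each plate was normalised to 0.1 % DMSO and a positive kill control. Dose-response curves were fitted for EC50, censored at the top concentration.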

CAL-148 [8] = details: 72 h; remark: listed apart in the source
Method in brief: as §2

MFM-223 [9] = details: 72 h
Method in brief: as §2

Hs578T [10] = details: 72 h
Method in brief: as §2

HCC1143 [11] = details: 72 h
Method in brief: as §2

HDQ-P1 [12] = details: 72 h
Method in brief: as §2

BT-549 [13] = details: 72 h; remark: listed apart in the source
Method in brief: as §2

CAL-51 [14] = details: 72 h; remark: listed apart in the source
Method in brief: as §2

HCC1937 [15] = details: 72 h; remark: listed apart in the source
Method in brief: as §2

MDA-MB-231 [16] = details: 72 h; remark: listed apart in the source
Method in brief: as §2

DU-4475 [17] = details: 72 h
Method in brief: as §2

MDA-MB-436 [18] = details: 72 h
Method in brief: as §2

Hs578T [19] = experiment: drug sensitivity score (DSS), CellTox Green (DSS (AUC-based score)); higher = stronger drug effect (viability inhibition or cytotoxicity); extreme values may be limits of the assay; details: incubation time: 72 h
Method in brief: (§3)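 Plates with 384 wells held compound at 5 concentrations in 10-fold steps over a 10,000-fold range specific to each compound. Breast cancer cell lines were added in 20 µl suspension and incubated 72 h, then read for CellTox Green and CellTiter-Glo signals, with each plate normalised to 0.1 % DMSO and a positive kill control. The drug sensitivity score is based on the area under the fitted dose-response curve.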

HCC1937 [20] = experiment: as above; details: incubation time: 72 h
Method in brief: as §3

MDA-MB-231 [21] = experiment: as above; details: incubation time: 72 h
Method in brief: as §3

CAL-85-1 [22] = details: 72 h
Procedure: as §1

Hs578T [23] = details: 72 h; remark: listed apart in the source
Procedure: as §1

HCC1143 [24] = details: 72 h; remark: listed apart in the source
Procedure: as §1

HDQ-P1 [25] = details: 72 h; remark: listed apart in the source
Procedure: as §1

DU-4475 [26] = details: 72 h; remark: listed apart in the source
Procedure: as §1

MCF-10A [27] = details: 72 h
Procedure: as §1

CAL-85-1 [28] = details: 72 h; remark: listed apart in the source
Method in brief: as §2

SK-BR-3 [29] = details: 72 h
Method in brief: as §2

HCC1599 [30] = details: 72 h
Method in brief: as §2

MDA-MB-453 [31] = details: 72 h
Method in brief: as §2

MCF-10A [32] = details: 72 h; remark: listed apart in the source
Method in brief: as §2

CAL-85-1 [33] = details: 72 h; remark: listed apart in the source
Method in brief: (§4)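 Compound dissolved in 5 µl medium was placed in 384-well plates before 20 µl of breast cancer cell suspension was added, and the plates were incubated for 72 h. Cells then received 2.5 µl CellTiter-Blue for 2 h at 37 °C, and fluorescence was read at 560/590 nm. EC50 values come from percent-inhibition dose-response fits that were censored at the highest concentration, with plates normalised to vehicle and a positive kill control and rows with a zero drug sensitivity score excluded.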

HDQ-P1 [34] = details: 72 h; remark: listed apart in the source
Method in brief: as §4

MDA-MB-453 [35] = details: 72 h; remark: listed apart in the source
Method in brief: as §4

DU-4475 [36] = details: 72 h; remark: listed apart in the source
Method in brief: as §4

BT-474 [37] = details: 72 h; remark: listed apart in the source
Method in brief: as §4

MFM-223 [38] = details: 72 h; remark: listed apart in the source
Method in brief: as §4

SK-BR-3 [39] = details: 72 h; remark: listed apart in the source
Method in brief: as §4

HCC1599 [40] = details: 72 h; remark: listed apart in the source
Method in brief: as §4

Hs578T [41] = details: 72 h; remark: listed apart in the source
Method in brief: as §4

HCC1143 [42] = details: 72 h; remark: listed apart in the source
Method in brief: as §4

BT-549 [43] = details: 72 h; remark: listed apart in the source
Method in brief: as §4

CAL-120 = details: 72 h
Method in brief: as §4

HCC1937 [44] = details: 72 h; remark: listed apart in the source
Method in brief: as §4

MDA-MB-231 [45] = details: 72 h; remark: listed apart in the source
Method in brief: as §4

MDA-MB-436 [46] = details: 72 h; remark: listed apart in the source
Method in brief: as §4

EC50, CellTiter-Glo (BT-474 [7]): 0.0761 µM
EC50, CellTiter-Glo (HCC1143 [11]): 0.0416 µM
EC50, CellTiter-Glo (BT-549 [13]): 0.177 µM
EC50, CellTiter-Glo (HCC1937 [15]): 1.74 µM
EC50, CellTiter-Glo (MDA-MB-231 [16]): 0.99 µM
EC50, CellTiter-Glo (MDA-MB-436 [18]): 0.027 µM
SMILES: COc1cc(Nc2ncc3c(n2)-c2ccc(Cl)cc2C(c2c(F)cccc2OC)=NC3)ccc1C(=O)O [Alisertib]
EC50, CellTox Green (BT-474 [1]): 8.37 µM
EC50, CellTox Green (CAL-148 [2]): 0.156 µM
EC50, CellTox Green (MDA-MB-468): 0.0155 µM
EC50, CellTox Green (BT-549 [3]): 0.756 µM
EC50, CellTox Green (CAL-51 [4]): 0.0182 µM
EC50, CellTox Green (HCC1937 [5]): 7.46 µM
EC50, CellTox Green (MDA-MB-231 [6]): 0.0148 µM
EC50, CellTiter-Glo (CAL-148 [8]): 0.659 µM
EC50, CellTiter-Glo (MFM-223 [9]): 0.615 µM
EC50, CellTiter-Glo (Hs578T [10]): 0.0779 µM
EC50, CellTiter-Glo (HDQ-P1 [12]): 8.41 µM
EC50, CellTiter-Glo (CAL-51 [14]): 0.0764 µM
EC50, CellTiter-Glo (DU-4475 [17]): 0.0246 µM
drug sensitivity score (Hs578T [19]): 0
drug sensitivity score (HCC1937 [20]): 1.76
drug sensitivity score (MDA-MB-231 [21]): 8.87

EC50, CellTiter-Glo (BT-474 [7]): 0.324 µM
EC50, CellTiter-Glo (SK-BR-3 [29]): 0.0463 µM
EC50, CellTiter-Glo (HCC1599 [30]): 0.266 µM
EC50, CellTiter-Glo (HCC1143 [11]): 0.063 µM
EC50, CellTiter-Glo (BT-549 [13]): 0.0529 µM
EC50, CellTiter-Glo (MDA-MB-453 [31]): 0.0234 µM
EC50, CellTiter-Glo (HCC1937 [15]): 0.113 µM
EC50, CellTiter-Glo (MDA-MB-231 [16]): 0.371 µM
EC50, CellTiter-Glo (MDA-MB-436 [18]): 0.028 µM
EC50, CellTiter-Blue viability (MDA-MB-453 [35]): 0.0155 µM
EC50, CellTiter-Blue viability (BT-474 [37]): 0.0484 µM
EC50, CellTiter-Blue viability (SK-BR-3 [39]): 0.0157 µM
EC50, CellTiter-Blue viability (HCC1599 [40]): 0.0843 µM
EC50, CellTiter-Blue viability (HCC1143 [42]): 0.00884 µM
EC50, CellTiter-Blue viability (BT-549 [43]): 0.0209 µM
EC50, CellTiter-Blue viability (HCC1937 [44]): 0.1 µM
EC50, CellTiter-Blue viability (MDA-MB-231 [45]): 0.722 µM
EC50, CellTiter-Blue viability (MDA-MB-436 [46]): 0.0252 µM
SMILES: C=CCNC1=C2C[C@@H](C)C[C@H](OC)[C@H](O)[C@@H](C)/C=C(\C)[C@H](OC(N)=O)[C@@H](OC)/C=C\C=C(/C)C(=O)NC(=CC1=O)C2=O [Tanespimycin]
EC50, CellTox Green (CAL-85-1 [22]): 0.0461 µM
EC50, CellTox Green (BT-474 [1]): 0.696 µM
EC50, CellTox Green (CAL-148 [2]): 0.112 µM
EC50, CellTox Green (Hs578T [23]): 4.34 µM
EC50, CellTox Green (HCC1143 [24]): > 10 µM
EC50, CellTox Green (HDQ-P1 [25]): 0.112 µM
EC50, CellTox Green (CAL-51 [4]): 0.122 µM
EC50, CellTox Green (MDA-MB-231 [6]): 0.0248 µM
EC50, CellTox Green (DU-4475 [26]): 0.179 µM
EC50, CellTox Green (MCF-10A [27]): 0.105 µM
EC50, CellTiter-Glo (CAL-85-1 [28]): 0.404 µM
EC50, CellTiter-Glo (CAL-148 [8]): 0.178 µM
EC50, CellTiter-Glo (MFM-223 [9]): 0.0641 µM
EC50, CellTiter-Glo (Hs578T [10]): 0.0979 µM
EC50, CellTiter-Glo (HDQ-P1 [12]): 0.103 µM
EC50, CellTiter-Glo (CAL-51 [14]): 0.0782 µM
EC50, CellTiter-Glo (DU-4475 [17]): 0.208 µM
EC50, CellTiter-Glo (MCF-10A [32]): 0.0878 µM
drug sensitivity score (Hs578T [19]): 1.53
drug sensitivity score (HCC1937 [20]): 0
drug sensitivity score (MDA-MB-231 [21]): 25.3
EC50, CellTiter-Blue viability (CAL-85-1 [33]): 0.194 µM
EC50, CellTiter-Blue viability (HDQ-P1 [34]): 0.0827 µM
EC50, CellTiter-Blue viability (DU-4475 [36]): 0.0484 µM
EC50, CellTiter-Blue viability (MFM-223 [38]): 0.0184 µM
EC50, CellTiter-Blue viability (Hs578T [41]): 0.0369 µM
EC50, CellTiter-Blue viability (CAL-120): 0.218 µM
